According to US10670605B2, “Cysteine reactive probes and uses thereof” (The Scripps Research Institute, priority 2015, dated 2020):

Key:
Test in all cases: Competitive isoTOP-ABPP in situ (fragment-treated cells)
Format in all cases: cell-based
[1] = molecular target: T1, cysteines in MDA-MB-231 and Ramos cells (Homo sapiens, UniProt P42765); settings: 200 μM, insitu
T1 sequence (P42765 1-397): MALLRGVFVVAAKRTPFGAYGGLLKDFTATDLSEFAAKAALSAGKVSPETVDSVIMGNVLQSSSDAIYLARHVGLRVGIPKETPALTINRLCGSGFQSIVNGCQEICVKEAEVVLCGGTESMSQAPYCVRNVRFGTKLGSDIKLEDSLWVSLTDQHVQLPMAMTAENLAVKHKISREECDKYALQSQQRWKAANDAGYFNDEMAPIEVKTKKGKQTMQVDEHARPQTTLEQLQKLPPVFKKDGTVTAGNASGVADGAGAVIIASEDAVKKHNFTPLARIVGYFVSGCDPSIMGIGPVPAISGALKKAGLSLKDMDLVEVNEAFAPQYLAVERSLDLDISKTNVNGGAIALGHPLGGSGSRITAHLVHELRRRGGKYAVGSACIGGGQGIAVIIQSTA

[2] = molecular target: T2, cysteines in MDA-MB-231 and Ramos cells (Homo sapiens, UniProt P22307); settings: 200 μM, insitu, 231
T2 sequence (P22307 1-547): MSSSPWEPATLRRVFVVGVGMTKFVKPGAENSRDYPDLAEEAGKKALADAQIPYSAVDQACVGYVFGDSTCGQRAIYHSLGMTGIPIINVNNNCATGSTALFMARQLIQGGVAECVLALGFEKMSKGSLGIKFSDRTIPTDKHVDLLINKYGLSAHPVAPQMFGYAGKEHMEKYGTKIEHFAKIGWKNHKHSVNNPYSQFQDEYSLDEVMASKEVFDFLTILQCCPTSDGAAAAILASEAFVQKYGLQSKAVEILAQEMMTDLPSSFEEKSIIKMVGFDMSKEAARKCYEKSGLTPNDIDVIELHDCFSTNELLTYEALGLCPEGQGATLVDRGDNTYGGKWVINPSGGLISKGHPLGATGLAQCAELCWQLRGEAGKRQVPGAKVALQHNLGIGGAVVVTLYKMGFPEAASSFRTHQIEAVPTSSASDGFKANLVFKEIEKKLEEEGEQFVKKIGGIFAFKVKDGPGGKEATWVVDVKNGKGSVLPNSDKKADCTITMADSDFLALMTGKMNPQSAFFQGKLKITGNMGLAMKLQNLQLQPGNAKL

[3] = molecular target: T3, cysteines in MDA-MB-231 and Ramos cells (Homo sapiens, UniProt Q13155); settings: 200 μM, insitu
T3 sequence (Q13155 1-320): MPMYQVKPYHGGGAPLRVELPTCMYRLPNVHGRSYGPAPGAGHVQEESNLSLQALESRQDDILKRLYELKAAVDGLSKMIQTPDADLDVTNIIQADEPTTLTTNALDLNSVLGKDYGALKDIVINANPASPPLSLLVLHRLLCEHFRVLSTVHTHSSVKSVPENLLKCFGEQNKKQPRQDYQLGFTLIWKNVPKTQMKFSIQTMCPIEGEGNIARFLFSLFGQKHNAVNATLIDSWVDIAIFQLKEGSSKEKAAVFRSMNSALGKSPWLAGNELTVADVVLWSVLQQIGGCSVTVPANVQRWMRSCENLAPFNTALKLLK

[4] = molecular target: T4, cysteines in MDA-MB-231 and Ramos cells (Homo sapiens, UniProt Q9NS86); settings: 200 μM, insitu
T4 sequence (Q9NS86 1-450): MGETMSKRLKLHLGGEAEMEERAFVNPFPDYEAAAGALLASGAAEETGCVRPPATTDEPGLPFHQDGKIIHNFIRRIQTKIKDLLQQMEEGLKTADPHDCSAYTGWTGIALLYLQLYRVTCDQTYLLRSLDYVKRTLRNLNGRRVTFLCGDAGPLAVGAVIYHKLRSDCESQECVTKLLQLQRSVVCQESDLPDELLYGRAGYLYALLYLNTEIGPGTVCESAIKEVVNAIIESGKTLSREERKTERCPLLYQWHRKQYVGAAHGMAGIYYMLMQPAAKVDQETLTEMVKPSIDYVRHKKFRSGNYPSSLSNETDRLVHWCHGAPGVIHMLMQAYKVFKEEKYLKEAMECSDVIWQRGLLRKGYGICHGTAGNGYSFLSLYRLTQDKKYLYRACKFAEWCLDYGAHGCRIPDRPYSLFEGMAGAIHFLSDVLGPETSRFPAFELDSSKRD

[5] = molecular target: cysteines in MDA-MB-231 and Ramos cells (Homo sapiens, UniProt P04406); settings: 200 μM, insitu
[6] = molecular target: T5, cysteines in MDA-MB-231 and Ramos cells (Homo sapiens, UniProt Q86SX6); settings: 200 μM, insitu
T5 sequence (Q86SX6 32-157): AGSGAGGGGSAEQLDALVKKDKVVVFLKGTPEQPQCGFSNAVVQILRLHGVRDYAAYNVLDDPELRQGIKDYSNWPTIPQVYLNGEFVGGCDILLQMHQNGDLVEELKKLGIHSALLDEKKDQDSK

[7] = molecular target: T6, cysteines in MDA-MB-231 and Ramos cells (Homo sapiens, UniProt O75521); settings: 200 μM, insitu
T6 sequence (O75521 39-394): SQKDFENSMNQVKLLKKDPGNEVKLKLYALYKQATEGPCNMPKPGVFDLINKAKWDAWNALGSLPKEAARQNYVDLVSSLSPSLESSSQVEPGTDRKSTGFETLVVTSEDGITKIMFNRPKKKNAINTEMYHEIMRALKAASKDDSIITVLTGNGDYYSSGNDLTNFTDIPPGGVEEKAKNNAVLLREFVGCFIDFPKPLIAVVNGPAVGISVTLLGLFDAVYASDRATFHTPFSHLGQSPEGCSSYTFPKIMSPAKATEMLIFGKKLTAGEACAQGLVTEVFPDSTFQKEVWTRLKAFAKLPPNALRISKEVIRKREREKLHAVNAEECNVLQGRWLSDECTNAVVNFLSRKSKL

[8] = molecular target: T7, cysteines in MDA-MB-231 and Ramos cells (Homo sapiens, UniProt A6NDU8); settings: 200 μM, insitu
T7 sequence (A6NDU8 1-294): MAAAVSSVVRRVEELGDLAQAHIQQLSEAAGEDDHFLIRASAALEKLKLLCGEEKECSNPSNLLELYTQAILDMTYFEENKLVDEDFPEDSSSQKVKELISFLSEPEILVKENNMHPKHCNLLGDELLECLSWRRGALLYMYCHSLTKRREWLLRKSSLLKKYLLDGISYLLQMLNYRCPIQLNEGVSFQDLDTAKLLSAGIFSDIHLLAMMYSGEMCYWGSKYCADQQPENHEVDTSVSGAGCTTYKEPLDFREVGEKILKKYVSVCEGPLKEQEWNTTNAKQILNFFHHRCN

cysteines in MDA-MB-231 and Ramos cells (Homo sapiens, UniProt P04406), sequence (P04406 whole entry): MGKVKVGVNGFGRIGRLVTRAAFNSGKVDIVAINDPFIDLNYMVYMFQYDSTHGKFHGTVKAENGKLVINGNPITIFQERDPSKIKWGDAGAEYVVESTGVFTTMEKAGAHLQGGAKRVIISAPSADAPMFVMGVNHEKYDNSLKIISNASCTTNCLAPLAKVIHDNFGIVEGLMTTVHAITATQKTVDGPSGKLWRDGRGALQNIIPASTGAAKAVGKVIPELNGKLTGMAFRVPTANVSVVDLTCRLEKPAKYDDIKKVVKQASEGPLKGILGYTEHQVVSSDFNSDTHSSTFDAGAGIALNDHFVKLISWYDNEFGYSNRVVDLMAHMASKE

| isoTOP-ABPP ratio P42765_C92 [1]; 231 | isoTOP-ABPP ratio P22307_C71 [2] | isoTOP-ABPP ratio, cysteine P22307_C94 [2] | isoTOP-ABPP ratio, cysteine P22307_C307 [2] | isoTOP-ABPP ratio Q13155_C23 [3]; 231 | isoTOP-ABPP ratio Q13155_C291 [3]; 231 | isoTOP-ABPP ratio Q9NS86_C187 [4]; 231 | isoTOP-ABPP ratio P04406_C152 [5]; 231 | isoTOP-ABPP ratio Q86SX6_C67 [6]; 231 | isoTOP-ABPP ratio O75521_C312 [7]; 231 | isoTOP-ABPP ratio O75521_C380 [7]; 231 | isoTOP-ABPP ratio P42765_C92 ([1]; ramos) | isoTOP-ABPP ratio A6NDU8_C179 [8]; 231 | isoTOP-ABPP ratio Q9NS86_C187 ([4]; ramos) | isoTOP-ABPP ratio P04406_C152 ([5]; ramos) | isoTOP-ABPP ratio Q86SX6_C67 ([6]; ramos) | isoTOP-ABPP ratio P22307_C94 [2] | isoTOP-ABPP ratio A6NDU8_C179 ([8]; ramos) | isoTOP-ABPP ratio Q13155_C23 ([3]; ramos) | isoTOP-ABPP ratio O75521_C380 ([7]; ramos) | SMILES |
| --- | --- | --- | --- | --- | --- | --- | --- | --- | --- | --- | --- | --- | --- | --- | --- | --- | --- | --- | --- | --- |
|  | 4.9 |  |  | 0.9 |  | 1.0 | 0.9 | 10.3 | 0.7 | 1.0 | 2.2 | 0.8 | 1.1 | 0.9 | 12.4 |  |  |  |  | O=C(CCl)NCCc1c[nH]c2ccccc12 [compound 13] |
| 0.8 |  |  |  |  | 0.8 | 0.5 | 0.8 |  |  |  | 1.2 |  |  | 1.0 | 0.7 |  |  |  |  | C=CC(=O)N(Cc1cccnc1)c1cc(C(F)(F)F)cc(C(F)(F)F)c1 [compound 31] |
| 0.9 |  |  |  | 1.4 | 1.7 | 2.0 | 0.9 | 1.0 | 1.1 | 0.9 |  | 1.4 |  |  |  |  |  |  |  | C=CC(=O)Nc1cc(F)c(N2CCN(C(=O)OC(C)(C)C)CC2)c(F)c1 [compound 38] |
| 1.1 | 5.6 |  |  | 1.2 | 1.1 | 2.0 | 1.0 | 1.0 |  | 1.0 |  |  |  |  |  |  |  |  |  | O=C(CCl)Nc1cccc2ncccc12 [compound 51] |

Further lines, the compound ahead of its results:

| SMILES | isoTOP-ABPP ratio P42765_C92 [1]; 231 | isoTOP-ABPP ratio P22307_C71 [2] | isoTOP-ABPP ratio, cysteine P22307_C94 [2] | isoTOP-ABPP ratio, cysteine P22307_C307 [2] | isoTOP-ABPP ratio Q13155_C23 [3]; 231 | isoTOP-ABPP ratio Q13155_C291 [3]; 231 | isoTOP-ABPP ratio Q9NS86_C187 [4]; 231 | isoTOP-ABPP ratio P04406_C152 [5]; 231 | isoTOP-ABPP ratio Q86SX6_C67 [6]; 231 | isoTOP-ABPP ratio O75521_C312 [7]; 231 | isoTOP-ABPP ratio O75521_C380 [7]; 231 | isoTOP-ABPP ratio P42765_C92 ([1]; ramos) | isoTOP-ABPP ratio A6NDU8_C179 [8]; 231 | isoTOP-ABPP ratio Q9NS86_C187 ([4]; ramos) | isoTOP-ABPP ratio P04406_C152 ([5]; ramos) | isoTOP-ABPP ratio Q86SX6_C67 ([6]; ramos) | isoTOP-ABPP ratio P22307_C94 [2] | isoTOP-ABPP ratio A6NDU8_C179 ([8]; ramos) | isoTOP-ABPP ratio Q13155_C23 ([3]; ramos) | isoTOP-ABPP ratio O75521_C380 ([7]; ramos) |
| --- | --- | --- | --- | --- | --- | --- | --- | --- | --- | --- | --- | --- | --- | --- | --- | --- | --- | --- | --- | --- |
| O=C(CCl)NC(=O)NC12CC3CC(CC(C3)C1)C2 [compound 12] | 20.0 | 3.7 | 20.0 | 20.0 | 1.6 | 1.1 | 2.0 | 0.9 | 1.6 | 4.2 | 1.9 |  |  |  |  |  |  |  |  |  |
| COc1ccccc1OCCNC(=O)CCl [compound 28] |  |  |  |  |  | 0.9 |  | 0.8 |  |  | 0.8 |  | 0.8 |  |  |  | 20.0 |  |  |  |
| O=C(CCl)N1CCN(CC(=O)N2CCOCC2)CC1 [compound 29] |  |  |  |  |  |  |  |  |  |  |  | 0.9 |  | 1.7 | 1.2 | 1.2 |  | 1.0 | 1.6 | 1.2 |
